In PubChem BioAssay (NCI):
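Briefly, cells in 96-well plates were exposed to five compound concentrations for 48 h, and endpoints were estimated by linear interpolation. Abbreviation: GI50, concentration required for 50% inhibition of growth. TGI: total growth inhibition.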

What was measured:
Assay in all cases: DTP human tumour cell line panel, 48 h
[1] = test system: M14 melanoma
[2] = test system: K-562 leukemia
[3] = test system: MALME-3M melanoma
[4] = test system: NCI-H522 lung
[5] = test system: NCI/ADR-RES ovarian
[6] = test system: NCI-H460 lung
[7] = test system: DU-145 prostate
[8] = test system: SF-295 CNS
[9] = test system: UO-31 renal
[10] = test system: HCT-15 colon

Structure (SMILES)	GI50 [1]	TGI [1]	GI50 [2]	TGI [2]	GI50 [3]	TGI [3]	GI50 [4]	TGI [4]	GI50 [5]	TGI [5]	GI50 [6]	TGI [6]	GI50 [7]	TGI [7]	GI50 [8]	TGI [8]	GI50 [9]	TGI [9]	GI50 [10]	TGI [10]
C[C@H]1[C@H](C)CC[C@]2(C(=O)O)CC[C@]3(C)C(=CC[C@@H]4[C@@]5(C)C/C(=C/c6cccnc6)[C@H](O)C(C)(C)[C@@H]5CC[C@]43C)[C@H]12	17.7 µM	49 µM	6.79 µM	> 100 µM	18.3 µM	51.2 µM	13 µM	94.3 µM	18.5 µM	68.5 µM	8.88 µM	26.6 µM	15.4 µM	> 100 µM	4.83 µM	25.8 µM	12.5 µM	26.4 µM	10.7 µM	52 µM
COc1cc(Nc2nc(N[C@H]3CCCC[C@@H]3N)nc3cc[nH]c(=O)c23)cc(OC)c1	0.379 µM	2.16 µM	2.47 µM	10.3 µM	2.2 µM	22.5 µM	1.45 µM	4.55 µM	41.4 µM	> 100 µM	1.28 µM	4.21 µM	0.74 µM	15.3 µM	1.5 µM	4.46 µM	6.72 µM	21.5 µM	3.97 µM	18.3 µM
Clc1nc(Cl)c2ncn(Cc3ccc(COc4cccc(OCc5ccc(Cn6cnc7c(Cl)nc(Cl)nc76)cc5)c4)cc3)c2n1	21.9 µM	85.9 µM	25.9 µM	> 100 µM	73.1 µM	> 100 µM	61.9 µM	> 100 µM	39.5 µM	> 100 µM	> 100 µM	> 100 µM	18.5 µM	48.1 µM	98.4 µM	> 100 µM	51.5 µM	> 100 µM	28.8 µM	> 100 µM
CCCCN(Cc1ccc(F)cc1)c1ccc(CO)c(Cl)c1	17.5 µM	34.6 µM	6.76 µM	29.6 µM	17.7 µM	33.8 µM	15 µM	30.1 µM	14.1 µM	29.3 µM	2.46 µM	13.4 µM	17 µM	31.3 µM	3.96 µM	17.2 µM	10.6 µM	23.6 µM	13.4 µM	28.5 µM
CC(=O)O[C@@H]1CC2C(C)(C)CCCC2(C)C2=C1C(=O)C(C(C)C)=CC2=O (stereo partly specified)	0.46 µM	2.34 µM	1.69 µM	> 100 µM	0.784 µM	4.8 µM	1.76 µM	3.98 µM	2.96 µM	> 100 µM	0.423 µM	1.9 µM	1.09 µM	2.48 µM	1.77 µM	3.61 µM	0.519 µM	1.8 µM	0.536 µM	2.49 µM
Oc1ccc(CCCCCCc2ccc(O)cc2)cc1	4.7 µM	17.5 µM	6.81 µM	> 75.1 µM	13.3 µM	29.6 µM	5.98 µM	24.2 µM	3.99 µM	17.4 µM	5.88 µM	18.9 µM	4.8 µM	15.2 µM	3.18 µM	15.5 µM	2.36 µM	15 µM	12.3 µM	26.6 µM
C[C@@H]1COCCN1c1cc(C2(S(C)(=N)=O)CC2)nc(-c2ccnc3[nH]ccc23)n1 (stereo partly specified)			3.22 µM	> 100 µM	5.55 µM	34 µM	6.92 µM	43.1 µM	23.3 µM	88.8 µM	1.07 µM	20.6 µM	3.06 µM	> 100 µM	1.66 µM	19.8 µM	2.55 µM	22.8 µM	3.98 µM	> 100 µM
CC1OC2CC(=O)OC2C2=C1C(=O)c1c(O)c3c(c(O)c1C2=O)C1CC(O)C3(O)C(C)O1 (stereo unspecified)	0.242 µM	0.662 µM	0.336 µM	11.5 µM	0.142 µM	0.385 µM	0.195 µM	0.447 µM	0.273 µM	0.917 µM	0.784 µM	3.14 µM	1.38 µM	2.69 µM	0.975 µM	3.29 µM	0.3 µM	1.53 µM	0.367 µM	3.69 µM
CC[C@H](CC#N)OC(=O)N[C@@H](C)c1cccc(NC(=O)Nc2ccc(-c3cnco3)c(OC)c2)c1	0.0753 µM	30.5 µM	0.0263 µM	> 52.6 µM	0.161 µM	31.2 µM	0.0731 µM	15.1 µM	4.87 µM	62.2 µM	0.0328 µM	17.1 µM	0.0672 µM	39.3 µM	0.0532 µM	13 µM	0.446 µM	10.3 µM	0.119 µM	> 51.4 µM
O=C1C(Cl)=C(Nc2cccc(O)c2)C(=O)N1c1cc(Cl)c(Cl)cc1Cl	20.8 µM	40.9 µM	17.4 µM	40.3 µM	7.29 µM	23.4 µM	14.3 µM	28 µM	24.9 µM	55.7 µM	18 µM	38.4 µM	17.4 µM	39.3 µM	20.6 µM	53.2 µM	13.5 µM	26.4 µM	15.1 µM	30.1 µM
COC(=O)CNC(=O)[C@@H](OC)[C@@H]1Cc2cc3cc(OC4CC(OC5CC(O)C(O)C(C)O5)C(O)C(C)O4)c(C)c(O)c3c(O)c2C(=O)[C@H]1OC1CC(OC2CC(OC3CC(C)(O)C(O)C(C)O3)C(O)C(C)O2)C(O)C(C)O1 (stereo partly specified)	0.239 µM	2.4 µM	0.192 µM	> 50 µM	0.123 µM	1.03 µM	0.0921 µM	0.372 µM	48.5 µM	> 50 µM	0.097 µM	> 50 µM	0.208 µM	> 50 µM	0.109 µM	> 50 µM	0.45 µM	12.8 µM	1.12 µM	> 50 µM
c1cnc2[nH]cc(-c3csc(-c4cn(CCCCN5CCOCC5)c5ccccc45)n3)c2c1	1.78 µM	3.62 µM	2.02 µM	3.93 µM	1.32 µM	2.96 µM	1.95 µM	3.77 µM	2.04 µM	4.71 µM			2.12 µM	4.28 µM	1.92 µM	4.04 µM	1.15 µM	2.53 µM	1.81 µM	3.51 µM
